Laboratory results from US20190350940A1, “PLATINUM COMPOUNDS, COMPOSITIONS, AND USES THEREOF” (priority 2015, published 2019).
“And” between values parts separate entries of the source, which are not always exact repeats. Equal values may be shown once. “Also recorded” adds a separate entry of the source.

Assays:
[1] = Single dose intravenous dose range-finding toxicity study in male rats (Compound 8-TX-001); format: in vivo; conditions: male, rat, in vivo, iv, single IV dose, male rats, N=3 per group; read-out: MTD and STD10
Experimental: (§1) This study (Compound 8-TX-001) was designed as a dose range finding study to support the dose selection for the repeat-dose IV toxicity GLP study in rats (Compound 8-TX-007).
(§2) The test article, Compound 8, was formulated prior to dosing as a solution in 5 mM citrate buffered saline (0.9% sodium chloride), pH about 4-4.5, at nominal concentrations of 2.7, 1.4, 1.9, and 2.3 mg/mL. Compound 8 was administered via IV injection to groups of 3 animals each at doses of 27, 14, 19, and 23 mg/kg. Dose formulations were all within the acceptance criteria (±10% of target concentration) ranging from 98.8 to 106.2 percent of target concentration. Assessment of toxicity was based on mortality, clinical observations, body weight, and food consumption, and clinical and anatomic pathology.

[2] = tested on: male rats; assay: as above; format: in vivo; conditions: rat
Experimental: as §1, §2

[3] = Single dose intravenous dose range-finding toxicity study in Beagle dogs (Compound 8-TX-002); format: in vivo, dog; conditions: both sexes, Beagle, in vivo; single IV dose, dog
Experimental: (§3) This study (Compound 8-TX-002) was conducted to evaluate and characterize the acute toxicity and to determine an MTD of Compound 8 when administered once via IV injection to the dog, and to assist in dose selection for a subsequent dog cardiovascular study (Compound 8-TX-005). The test article, Compound 8, was formulated prior to dosing, as a solution in 5 mM citrate buffered saline (0.9% sodium chloride), pH about 4-4.5 at nominal concentrations of 1.2, 2.4, 4.0, and 4.8 mg/mL. Dose formulations were all within the acceptance criteria (+10% of target concentration) ranging from 92.1 to 99.8 percent of target concentration.
(§4) Groups of 2 animals each (1 male, 1 female) received Compound 8 at doses of 3, 6, 10, or 12 mg/kg. Assessment of toxicity was based on mortality, clinical observations, body weight, and qualitative food assessment; physical examinations; and clinical pathology. Toxicokinetic assessment was conducted for platinum concentration in the plasma and plasma ultrafiltrate.

[4] = tested on: Beagle dogs; assay: as above; format: in vivo, dog
Experimental: as §3, §4

[5] = tested on: male and female rats; assay: Repeat-dose intravenous toxicity study in rats with a 3-week recovery period (Compound 8-TX-007); format: in vivo
Experimental: (§5) Groups of 30 animals (15/sex) each received vehicle control or Compound 8 9, 14, 19, or 6 mg/kg. Groups of 20 animals (10/sex) received Compound 8 9, 14, 19, or 6 mg/kg and 6 animals (3/sex) received vehicle control in the TK portion of the study.
Assessment of toxicity was based on mortality, clinical observations, functional observational battery evaluations, body weight, and food consumption and efficiency; ophthalmoscopic examinations; and clinical and anatomical pathology. RBC pellet analysis was conducted for total platinum content.
Toxicity and TK assessments were conducted for the test article and positive control.

[6] = tested on: BxPC-3 human pancreatic adenocarcinoma; assay: BxPC-3 pancreatic xenograft model; format: in vivo, mouse; conditions: female, Crl:NU(NCr)-Foxn1^nu nude, mouse, in vivo, 20 mg/kg, 13 day
Experimental: The effect of Compound 8 on TGI was evaluated in the BxPC-3 human pancreatic adenocarcinoma nude mouse (female Crl:NU(NCr)-Foxn1^nu) xenograft model.

[7] = tested on: MIA Paca-2 human pancreatic adenocarcinoma; assay: MIA Paca-2 pancreatic xenograft model; format: in vivo, mouse; conditions: mouse, in vivo, 10 mg/kg
[8] = tested on: Calu-6 human NSCLC; assay: Calu-6 lung xenograft model; format: in vivo, mouse; conditions: mouse, in vivo
Experimental: The effect of Compound 8 was evaluated in the Calu-6 human NSCLC nude mouse (female Crl:NU(NCr)-Foxn1^nu) xenograft model.

[9] = tested on: NCI-H520 human NSCLC; assay: NCI-H520 lung xenograft model; format: in vivo, mouse; conditions: mouse, in vivo
Experimental: The effect of Compound 8 also was evaluated in the NCI-H520 human NSCLC nude mouse (female CrTac:NCr-Foxn1^nu) xenograft model. […] All treatments were statistically significant compared to vehicle (p<0.0001).

[10] = tested on: female Beagle dogs; assay: Cardiovascular and respiratory effects in Beagle dogs (Compound 8-TX-005); format: in vivo, dog
Experimental: The cardiovascular and respiratory effects of Compound 8 administered IV were evaluated in Beagle dogs (Compound 8-TX-005).

[11] = tested on: rat plasma; assay: In vitro plasma protein binding, rat plasma (Compound 8-DMPK-008); format: in vitro ADME; conditions: incubation 10 minutes at 37° C.
[12] = Platinum pharmacokinetics/toxicokinetics in rat; conditions: in vivo
Experimental: Platinum in the plasma ultrafiltrate was considered free drug (non-protein bound), while the platinum in the plasma was a combination of protein bound and free drug.
as §5

[13] = molecular target: T1, CYP1A2 (Homo sapiens, UniProt P05177); assay: CYP inhibition, 1A2; format: in vitro ADME
T1 construct: host or cells: microsomes are mentioned
T1 sequence (P05177 whole entry): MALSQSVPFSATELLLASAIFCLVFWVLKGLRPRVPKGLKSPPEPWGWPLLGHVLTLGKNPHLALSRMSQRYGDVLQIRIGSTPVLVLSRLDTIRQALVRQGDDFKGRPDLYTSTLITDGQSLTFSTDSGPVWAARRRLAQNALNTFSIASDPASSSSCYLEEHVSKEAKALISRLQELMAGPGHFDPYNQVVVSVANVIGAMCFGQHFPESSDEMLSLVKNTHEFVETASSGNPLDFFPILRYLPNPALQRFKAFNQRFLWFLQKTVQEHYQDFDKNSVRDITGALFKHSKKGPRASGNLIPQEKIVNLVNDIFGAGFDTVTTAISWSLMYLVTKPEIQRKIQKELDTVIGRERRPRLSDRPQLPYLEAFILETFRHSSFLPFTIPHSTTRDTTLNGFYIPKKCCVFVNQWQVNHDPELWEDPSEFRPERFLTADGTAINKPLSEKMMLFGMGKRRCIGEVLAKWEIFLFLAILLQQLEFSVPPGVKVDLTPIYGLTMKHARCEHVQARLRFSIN

[14] = molecular target: CYP2D6 (Homo sapiens, UniProt P10635); assay: CYP inhibition, 2D6; format: in vitro ADME
Chain of CYP2D6 (P10635 whole entry): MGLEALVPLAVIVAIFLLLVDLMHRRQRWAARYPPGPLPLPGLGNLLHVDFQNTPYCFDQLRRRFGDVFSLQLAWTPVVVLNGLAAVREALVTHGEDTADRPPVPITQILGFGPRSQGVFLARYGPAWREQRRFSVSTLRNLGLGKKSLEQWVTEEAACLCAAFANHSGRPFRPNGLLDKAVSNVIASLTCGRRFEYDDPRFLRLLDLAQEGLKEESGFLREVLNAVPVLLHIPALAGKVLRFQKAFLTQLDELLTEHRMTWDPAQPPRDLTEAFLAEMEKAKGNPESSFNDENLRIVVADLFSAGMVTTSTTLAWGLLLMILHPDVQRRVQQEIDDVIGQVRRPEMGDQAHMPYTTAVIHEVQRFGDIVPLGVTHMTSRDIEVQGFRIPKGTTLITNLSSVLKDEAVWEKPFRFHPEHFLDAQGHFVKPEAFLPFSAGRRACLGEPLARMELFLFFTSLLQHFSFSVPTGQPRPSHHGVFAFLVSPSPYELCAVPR

[15] = molecular target: CYP3A4 (Homo sapiens, UniProt P08684); assay: CYP inhibition, 3A4; format: in vitro ADME
Chain of CYP3A4 (P08684 whole entry): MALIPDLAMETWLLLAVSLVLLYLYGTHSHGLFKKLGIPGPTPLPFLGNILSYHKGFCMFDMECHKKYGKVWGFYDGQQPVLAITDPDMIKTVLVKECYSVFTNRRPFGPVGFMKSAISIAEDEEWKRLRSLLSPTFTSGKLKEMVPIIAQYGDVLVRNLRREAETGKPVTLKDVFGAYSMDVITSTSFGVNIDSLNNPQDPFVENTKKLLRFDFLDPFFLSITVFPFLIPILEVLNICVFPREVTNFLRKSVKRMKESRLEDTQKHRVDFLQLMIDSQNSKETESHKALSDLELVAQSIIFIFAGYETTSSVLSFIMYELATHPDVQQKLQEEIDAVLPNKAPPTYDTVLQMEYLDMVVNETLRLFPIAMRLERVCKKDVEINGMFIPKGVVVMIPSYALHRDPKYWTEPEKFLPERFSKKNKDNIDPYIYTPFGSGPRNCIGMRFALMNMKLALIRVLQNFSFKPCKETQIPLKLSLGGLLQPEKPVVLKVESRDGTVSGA

In the case of CC(=O)[O][Pt]([NH2])([NH2])([Cl])([Cl])[O]C(=O)NCCCCCN1C(=O)C=CC1=O [Compound 8], the MTD [1] is reported as 19 mg/kg, the “Renal function and renal injury” value ([2]; in vivo, 14 mg/kg) is reported as “Evidence of reduced renal function and renal injury” and the “Inflammatory response (leukocytes, neutrophils, monocytes, lymphocytes)” value ([2]; in vivo, 19 mg/kg) is reported as “Evidence of an inflammatory response”. For the same compound, the Body weight ([2]; in vivo, 23 mg/kg) was “Decreases in body weight were noted throughout the study”, the “MTD and STD10 (MTD dose)” value ([2]; single IV dose, corresponds to 19 mg/kg) was 122 mg/m^2 and 120 (MTD*) mg/m^2 and 120 (MTD^1) mg/m^2 and the MTD [3] was 10 mg/kg. For the same compound, the “Decrease in body weight” value ([4]; 12 mg/kg animals) was “exceeded 10%”, the “Chemistry, coagulation, or urinalysis parameters” value ([4]; 3, 6, 10, 12 mg/kg) was “no definitive effects” and the Hematology parameters ([4]; both sexes, all groups (3, 6, 10, 12 mg/kg)) was “decreases in reticulocytes, red cell mass, neutrophils and platelets”. For the same compound, the MTD ([4]; single IV dose, dog, corresponds to 10 mg/kg) was 200 mg/m^2 and 205 (MTD) mg/m^2, the “Mortality and treatment-related clinical observations” value ([4]; up to 12 mg/kg (240 mg/m^2)) was “no mortalities or treatment related clinical observations; also recorded: no mortalities” and the “Body weights (decreased relative to vehicle)” value ([5]; Compound 8 9 mg/kg) was “transiently through Day 7”. The “Local tolerance: microscopic evaluation of the last injection site” value ([5]; Compound 8 19 mg/kg, terminal males and females) was “slightly increased incidence and/or severity of perivascular subacute/chronic inflammation and/or hemorrhage”, the “Changes attributable to altered renal function” value ([5]; Compound 8 9, 14, 19 mg/kg) was “noted in both sexes at all Compound 8 dose levels” and the “Deaths, clinical observations, functional observation battery (FOB), ophthalmic examinations” value ([5]; Compound 8 9, 14, 19 mg/kg) was “no deaths and no effects were noted”. For the same compound, the “Clinical Chemistry (moderate to marked)” value ([5]; Compound 8, 19 mg/kg) was “Creatinine↑, AST↑, ALT↑,; also recorded: Amylase↑, Lipase↑,; also recorded: Cholesterol↑ Globulin↑”, the “Clinical observations, FOB and ophthalmic observations” value ([5]; Compound 8, 19 mg/kg) was “No adverse effects” and the Mortality ([5]; Compound 8, 19 mg/kg) was “No unscheduled deaths”. For the same compound, the “Pathology: Kidneys (moderate or severe)” value ([5]; Compound 8, 19 mg/kg) was “Tubule degeneration/necrosis”, the “Pathology: Organ weights” value ([5]; Compound 8, 19 mg/kg) was “Thymus↓” and the “Pathology: Stomach nonglandular” value ([5]; Compound 8, 19 mg/kg) was “erosion ulcer (1M), no”. The “Pathology: Testes” value ([5]; Compound 8, 19 mg/kg) was “Degeneration/atrophy (1M)”, the “Pathology: Thymus” value ([5]; Compound 8, 19 mg/kg) was “(1M), (moderate at terminal,” and the “Microscopic changes, kidney” value ([5]; rat, in vivo) was “kidney tubular degeneration/necrosis and/or regeneration”. For the same compound, the Organ weight changes ([5]; rat, in vivo, 14 mg/kg) was “decreased absolute and relative thymus weights in males and females”, the “Increase in urea nitrogen” value ([5]; rat, in vivo, 19 mg/kg) was “+14%” and the Treatment-related side effects [6] was “swollen tails on Day 13 in all animals”. For the same compound, the “Mean maximal BW loss” value [7] was 3.7%, the Treatment-related adverse effects [7] was “No treatment-related adverse effects” and the “Mean maximal BW loss” value ([8]; 10 mg/kg) was 0.9%. For the same compound, the “Mean maximal BW loss” value ([8]; 15 mg/kg) was 3.2%, the “Mean maximal BW loss” value ([9]; 10 mg/kg) was 2.7% and the “Mean maximal BW loss” value ([9]; 15 mg/kg) was 11%. For the same compound, the “Increases in blood pressure (slight, non-dose-dependent)” value ([10]; 6 and 10 mg/kg, between 6 and 12 hours following treatment) was 9-16 % above controls, the “Doses with no observable adverse effects on cardiovascular or pulmonary function” value ([10]; IV, female Beagle dogs) was no more than 10 mg/kg and the “Doses with no observable adverse effects on cardiovascular or pulmonary function, as HED” value ([10]; IV, female Beagle dogs) was no more than 200 mg/m^2. For the same compound, the “Test article-related clinical observations” value ([10]; all animals, approximately 24 hours post-dose) was “observations of vomitus”, the “Mortality, body temperature, heart rate, ECG parameters (PR, RR, QRS, QT, QTc), respiratory rate” value ([10]; single IV injection 6 and 10 mg/kg, female Beagle dogs) was “did not produce mortality or changes” and the Protein bound [11] was greater than 99%. For the same compound, the “Ultrafiltrate levels as share of the total platinum levels” value ([12]; both) was “approximately 1%”, the “RBC platinum concentrations, Day 21 relative to Day 1” value ([12]; 19 mg/kg) was “did not result in significant accumulation of platinum in the RBCs” and the IC50 [13] was 550 nM. It also gave an IC50 [14] of 720 nM and an IC50 [15] of 1960 nM.
